Results on eight molecules are retold here after ChEMBL document CHEMBL4814037, “Synthesis of pyrazoline fatty chain derivatives and its effects on melanoma cells” (2021).

For assay [1], the system named is B16-F10. Nature of the assay: Cytotoxicity against mouse B16-F10 cells assessed as cell viability at 300 uM incubated for 48 hrs relative to control. In kind it is functional. The conditions noted are these: read-out: Activity.
The test system of assay [2] is B16-F10. Nature of the assay: Cytotoxicity against mouse B16-F10 cells assessed as cell viability at 30 uM incubated for 48 hrs relative to control. Format: functional. The conditions noted are these: read-out: Activity.
Assay [3] has as its system B16-F10. Description: Cytotoxicity against mouse B16-F10 cells assessed as cell viability at 300 uM incubated for 72 hrs relative to control. Conditions: for viability at 300 µM: read-out: Activity. Format: functional.
For assay [4], the system named is B16-F10. Nature of the assay: Cytotoxicity against mouse B16-F10 cells assessed as cell viability at 300 uM incubated for 24 hrs relative to control. In kind it is functional. Conditions: read-out: Activity.
Assay [5] deals with B16-F10. Description: Cytotoxicity against mouse B16-F10 cells assessed as cell viability at 3 uM incubated for 48 hrs relative to control. In kind it is functional. Conditions: read-out: Activity.
Assay [6] concerns B16-F10. Nature of the assay: Cytotoxicity against mouse B16-F10 cells assessed as cell viability at 3000 uM incubated for 48 hrs relative to control. In kind it is functional. The conditions noted are these: read-out: Activity.
The subject of assay [7] is B16-F10. Description: Cytotoxicity against mouse B16-F10 cells assessed as cell viability at 3000 uM incubated for 72 hrs relative to control. Format: functional. The conditions noted are these: for viability at 3000 µM: read-out: Activity.
The subject of assay [8] is B16-F10. Description: Cytotoxicity against mouse B16-F10 cells assessed as cell viability at 3000 uM incubated for 24 hrs relative to control. In kind it is functional. Conditions: for viability at 3000 µM: read-out: Activity.
The test system of assay [9] is B16-F10. Description: Cytotoxicity against mouse B16-F10 cells assessed as decrease in cell viability at 3000 uM incubated for 72 hrs. Format: functional, cell-based.
Assay [10] deals with B16-F10. Nature of the assay: Cytotoxicity against mouse B16-F10 cells assessed as cell viability at 300 uM measured immediately relative to control. Format: functional. Conditions: read-out: Activity.
For assay [11], the system named is B16-F10. Nature of the assay: Cytotoxicity against mouse B16-F10 cells assessed as cell viability at 30 uM incubated for 72 hrs relative to control. The conditions noted are these: read-out: Activity. Format: functional.
Assay [12] concerns B16-F10. Nature of the assay: Cytotoxicity against mouse B16-F10 cells assessed as cell viability at 3 to 3000 uM measured after 48 to 72 hrs. In kind it is functional, cell-based. Conditions: dose 3-3000 µM, time 48-72 hrs.

The structures appear in SMILES notation. Activity calls are given as the source filed them. The calls are words filed in the database; no cut-off is given here.

`CCCCCCCCCCCC1=NN(C(N)=S)C(O)(C(F)(F)F)C1` (stereo not drawn): the viability at 300 µM in the assay with B16-F10 [1] was found to be 18%; in the assay on B16-F10 [3] it was 10%; with B16-F10 [4], 17%. Moreover, in the assay on B16-F10 [2], the viability at 30 µM amounted to 67%. Besides, the viability at 3 µM in the assay on B16-F10 [5] came to 89%.
Turning to `NC(=O)N1N=CCC1(O)C(F)(F)F` (stereo not drawn), the viability at 3000 µM was found to be 17% in the assay with B16-F10 [6] and 7% in the assay with B16-F10 [7]. Also, the values for the viability at 300 µM in the assay with B16-F10 [1] and in the assay with B16-F10 [3] were 43% and 17%, respectively.
On to `CCCCCCC1=NN(C(N)=O)C(O)(C(F)(F)F)C1` (stereo not drawn), for which the results for the viability at 3000 µM with B16-F10 [6] and with B16-F10 [8] were 8% and 76%, respectively. Further, the result in the assay on B16-F10 [7] and in the assay with B16-F10 [3] was Active. Besides, the viability at 300 µM with B16-F10 [1] was 53%.
In the case of `CCCCCCC1=NN(C(N)=S)C(O)(C(F)(F)F)C1` (stereo not drawn), the viability at 3000 µM came out at 8% with B16-F10 [6], 8% in the assay on B16-F10 [7] and 16% in the assay with B16-F10 [8].
Turning to `CCCCCCCCCCCC1=NN(C(N)=O)C(O)(C(F)(F)F)C1` (stereo not drawn), the result in the assay with B16-F10 [9] was Active. The viability at 300 µM in the assay on B16-F10 [1] turned out to be 16%; with B16-F10 [10] it was 78%; with B16-F10 [4], 17%. For the same molecule, the viability at 30 µM in the assay with B16-F10 [2] amounted to 76%; in the assay on B16-F10 [11], 51%.
As for `NC(=S)N1N=CCC1(O)C(F)(F)F` (stereo not drawn), in the assay with B16-F10 [12], the inhibition result is “Active”.
Take `CC1=NN(C(N)=S)C(O)(C(F)(F)F)C1` (stereo not drawn): the viability at 3000 µM stood at 9% in the assay with B16-F10 [6] and 4% in the assay with B16-F10 [7]. Further, the result with B16-F10 [8] was Active.
For `CC1=NN(C(N)=O)C(O)(C(F)(F)F)C1` (stereo not drawn), the result with B16-F10 [9] was Active.
